This note sets out measurements from patent US20200308170A1, “KRAS G12C INHIBITORS” (Mirati Therapeutics, Inc., priority 2017, published 2020).

This assay has as its target T1, KRas G12C (Homo sapiens, UniProt P01116, C118S/C51S/C80L/G12C).
T1 construct: GDP-loaded K-Ras (1-169) G12C, C51S, C80L, C118S
In words: KRas G12C Modification Assay (LCMS detection of covalent adduct). Type of assay: binding. The settings on record: 5 μM concentration for 3 hours; LC/MS of intact protein; higher POC = higher degree of modification. How it is done: A 10 μL aliquot of each protein solution was then transferred to a 384 well microtiter plate. Initial compound stocks were generated at fifty times their desired final assay concentration in DMSO.
Exemplary compounds of Formula (II) were diluted 25-fold into K-Ras Assay Buffer to a final of two times their final concentration. A 10 μL aliquot of each diluted compound solution was then added to each of the protein solutions in the microtiter plate to initiate reaction. […] At each time point, the reactions were quenched with 20 μL of a 25 mM acetic acid solution. […] Once all reactions were quenched, the plates were heat sealed and the samples were injected into a LC/MS system for data acquisition.
Samples were injected in their liquid phase onto a C-3 reverse phase column to remove assay buffer and prepare the samples for mass spectrometer. The proteins were eluted from the column using an acetonitrile gradient and fed directly into the mass analyzer. Initial raw data analysis took place in Agilent MassHunter software immediately post data acquisition.
Raw data analysis of the intact protein was exclusively a deconvolution of the multiple charge states of each protein in solution using a maximum entropy deconvolution provided in Mass Hunter. To minimize complexity, only the data over limited mass ranges were considered for analysis, with a minimum of one Dalton mass step intervals. The heights of all masses identified during raw data analysis were exported to be further analyzed in Spotfire® data analysis software.
Final data analysis was a multistep process in the Spotfire® data analysis software package. Briefly, each protein mass was calculated as a percent of the total signal of that sample, that percentage was then normalized to the percentage of signal of the protein in the absence of reactive compounds. Those normalized signals were reported as normalized percent of control (POC). […] Key: “A”≤25% POC; “B”>25% POC−≤50% POC; “C”>50% POC and ND=not determined.
For `Cc1cccc2cccc(N3CCc4c(nc(OC[C@@H]5CCCN5C)nc4N4CCN(C(=O)/C=C/c5ccccn5)[C@@H](CC#N)C4)C3)c12` [Example 22, 2-((S)-4-(7-(8-methylnaphthalen-1-yl)-2-(((S)-1-methylpyrrolidin-2-yl)methoxy)-5,6,7,8-tetrahydropyrido[3,4-d]pyrimidin-4-yl)-1-((E)-3-(pyridin-2-yl)acryloyl)piperazin-2-yl)acetonitrile], the “POC (normalized percent of control; degree of covalent modification of KRas G12C)” value is on record as “C (“C”>50% POC)”.

In the case of `Cc1cccc2cccc(N3CCc4c(nc(OC[C@@H]5CCCN5C)nc4N4CCN(C(=O)/C=C/CCl)[C@@H](CC#N)C4)C3)c12` [Example 27, 2-((S)-1-((E)-4-chlorobut-2-enoyl)-4-(7-(8-methylnaphthalen-1-yl)-2-(((S)-1-methylpyrrolidin-2-yl)methoxy)-5,6,7,8-tetrahydropyrido[3,4-d]pyrimidin-4-yl)piperazin-2-yl)acetonitrile], the “POC (normalized percent of control; degree of covalent modification of KRas G12C)” value is on record as “C (“C”>50% POC)”. In the case of `CN1CCC[C@H]1COc1nc2c(c(N3CCN(C(=O)/C=C/CF)[C@@H](CC#N)C3)n1)CCN(c1cccc3cccc(Cl)c13)C2` [Example 8, 2-[(2S)-4-[7-(8-chloro-1-naphthyl)-2-[[(2S)-1-methylpyrrolidin-2-yl]methoxy]-6,8-dihydro-5H-pyrido[3,4-d]pyrimidin-4-yl]-1-[(E)-4-fluorobut-2-enoyl]piperazin-2-yl]acetonitrile] it was “C (“C”>50% POC)”.

As for `Cc1cccc2cccc(N3CCc4c(nc(OC[C@@H]5CCCN5C)nc4N4CCN(C(=O)/C=C/C(F)(F)F)[C@@H](CC#N)C4)C3)c12` [Example 20, 2-((S)-4-(7-(8-methylnaphthalen-1-yl)-2-(((S)-1-methylpyrrolidin-2-yl)methoxy)-5,6,7,8-tetrahydropyrido[3,4-d]pyrimidin-4-yl)-1-((E)-4,4,4-trifluorobut-2-enoyl)piperazin-2-yl)acetonitrile], the “POC (normalized percent of control; degree of covalent modification of KRas G12C)” value is recorded as “C (“C”>50% POC)”.

With `Cc1cccc2cccc(N3CCc4c(nc(OC[C@@H]5CCCN5C)nc4N4CCN(C(=O)/C=C/Cn5cccn5)[C@@H](CC#N)C4)C3)c12` [Example 38, 2-((S)-1-((E)-4-(1H-pyrazol-1-yl)but-2-enoyl)-4-(7-(8-methylnaphthalen-1-yl)-2-(((S)-1-methylpyrrolidin-2-yl)methoxy)-5,6,7,8-tetrahydropyrido[3,4-d]pyrimidin-4-yl)piperazin-2-yl)acetonitrile], the “POC (normalized percent of control; degree of covalent modification of KRas G12C)” value is on record as “C (“C”>50% POC)”. In the case of `Cc1cccc2cccc(N3CCc4c(nc(OC[C@@H]5CCCN5C)nc4N4CCN(C(=O)/C=C/c5ccncc5)[C@@H](CC#N)C4)C3)c12` [Example 55, 2-((S)-4-(7-(8-methylnaphthalen-1-yl)-2-(((S)-1-methylpyrrolidin-2-yl)methoxy)-5,6,7,8-tetrahydropyrido[3,4-d]pyrimidin-4-yl)-1-((E)-3-(pyridin-4-yl)acryloyl)piperazin-2-yl)acetonitrile] it was “C (“C”>50% POC)”; in that of `C=C(OC)C(=O)N1CCN(c2nc(OC[C@@H]3CCCN3C)nc3c2CCN(c2cccc4cccc(C)c24)C3)C[C@@H]1CC#N` [Example 41, 2-[(2S)-1-(2-methoxyprop-2-enoyl)-4-[7-(8-methyl-1-naphthyl)-2-[[(2S)-1-methylpyrrolidin-2-yl]methoxy]-6,8-dihydro-5H-pyrido[3,4-d]pyrimidin-4-yl]piperazin-2-yl]acetonitrile], “A (“A”≤25% POC)”; in that of `C=C(C(=O)N1CCN(c2nc(OC[C@@H]3CCCN3C)nc3c2CCN(c2cccc(C)c2C)C3)C[C@@H]1CC#N)C(F)(F)F` [Example 16, 2-((S)-4-(7-(2,3-dimethylphenyl)-2-(((S)-1-methylpyrrolidin-2-yl)methoxy)-5,6,7,8-tetrahydropyrido[3,4-d]pyrimidin-4-yl)-1-(2-(trifluoromethyl)acryloyl)piperazin-2-yl)acetonitrile], “A (“A”≤25% POC)”. Consider `Cc1cccc2cccc(N3CCc4c(nc(OC[C@@H]5CCCN5C)nc4N4CCN(C(=O)/C=C/CO)[C@@H](CC#N)C4)C3)c12` [Example 39, 2-((S)-1-((E)-4-hydroxybut-2-enoyl)-4-(7-(8-methylnaphthalen-1-yl)-2-(((S)-1-methylpyrrolidin-2-yl)methoxy)-5,6,7,8-tetrahydropyrido[3,4-d]pyrimidin-4-yl)piperazin-2-yl)acetonitrile], for which the “POC (normalized percent of control; degree of covalent modification of KRas G12C)” value is “C (“C”>50% POC)”. With `Cc1cccc2cccc(N3CCc4c(nc(OC[C@@H]5CCCN5C)nc4N4CCN(C(=O)/C=C/C#N)[C@@H](CC#N)C4)C3)c12` [Example 30, (E)-4-((S)-2-(cyanomethyl)-4-(7-(8-methylnaphthalen-1-yl)-2-(((S)-1-methylpyrrolidin-2-yl)methoxy)-5,6,7,8-tetrahydropyrido[3,4-d]pyrimidin-4-yl)piperazin-1-yl)-4-oxobut-2-enenitrile], the “POC (normalized percent of control; degree of covalent modification of KRas G12C)” value is listed as “C (“C”>50% POC)”. As for `COC/C=C/C(=O)N1CCN(c2nc(OC[C@@H]3CCCN3C)nc3c2CCN(c2cccc4cccc(C)c24)C3)C[C@@H]1CC#N` [Example 40, 2-((S)-1-((E)-4-methoxybut-2-enoyl)-4-(7-(8-methylnaphthalen-1-yl)-2-(((S)-1-methylpyrrolidin-2-yl)methoxy)-5,6,7,8-tetrahydropyrido[3,4-d]pyrimidin-4-yl)piperazin-2-yl)acetonitrile], the entry is “C (“C”>50% POC)”; as for `Cc1cccc2cccc(N3CCc4c(nc(OC[C@@H]5CCCN5C)nc4N4CCN(C(=O)/C=C/C(=O)N(C)C)[C@@H](CC#N)C4)C3)c12` [Example 28, (E)-4-((S)-2-(cyanomethyl)-4-(7-(8-methylnaphthalen-1-yl)-2-(((S)-1-methylpyrrolidin-2-yl)methoxy)-5,6,7,8-tetrahydropyrido[3,4-d]pyrimidin-4-yl)piperazin-1-yl)-N,N-dimethyl-4-oxobut-2-enamide], “C (“C”>50% POC)”; as for `Cc1cccc2cccc(N3CCc4c(nc(OC[C@@H]5CCCN5C)nc4N4CCN(C(=O)/C=C/c5cnn(C)c5)[C@@H](CC#N)C4)C3)c12` [Example 23, 2-((S)-1-((E)-3-(1-methyl-1H-pyrazol-4-yl)acryloyl)-4-(7-(8-methylnaphthalen-1-yl)-2-(((S)-1-methylpyrrolidin-2-yl)methoxy)-5,6,7,8-tetrahydropyrido[3,4-d]pyrimidin-4-yl)piperazin-2-yl)acetonitrile], “C (“C”>50% POC)”. In the case of `Cc1cccc(N2CCc3c(nc(OC[C@@H]4CCCN4C)nc3N3CCN(C(=O)/C=C/CN4CCC(F)C4)[C@@H](CC#N)C3)C2)c1C` (stereo partly drawn) [Example 5, 2-[(2S)-4-[7-(2,3-dimethylphenyl)-2-[[(2S)-1-methylpyrrolidin-2-yl]methoxy]-6,8-dihydro-5H-pyrido[3,4-d]pyrimidin-4-yl]-1-[(E)-4-(3-fluoropyrrolidin-1-yl)but-2-enoyl]piperazin-2-yl]acetonitrile], the “POC (normalized percent of control; degree of covalent modification of KRas G12C)” value is listed as “C (“C”>50% POC)”. In the case of `C=C(NC(C)=O)C(=O)N1CCN(c2nc(OC[C@@H]3CCCN3C)nc3c2CCN(c2cccc4cccc(C)c24)C3)C[C@@H]1CC#N` [Example 54, N-(3-((S)-2-(cyanomethyl)-4-(7-(8-methylnaphthalen-1-yl)-2-(((S)-1-methylpyrrolidin-2-yl)methoxy)-5,6,7,8-tetrahydropyrido[3,4-d]pyrimidin-4-yl)piperazin-1-yl)-3-oxoprop-1-en-2-yl)acetamide] it was “B (“B”>25% POC−≤50% POC)”. On to `CN(C/C=C/C(=O)N1CCN(c2nc(OC[C@@H]3CCCN3C)nc3c2CCN(c2cccc4cccc(Cl)c24)C3)C[C@@H]1CC#N)CC(F)(F)F` [Example 11, 2-[(2S)-4-[7-(8-chloro-1-naphthyl)-2-[[(2S)-1-methylpyrrolidin-2-yl]methoxy]-6,8-dihydro-5H-pyrido[3,4-d]pyrimidin-4-yl]-1-[(E)-4-[methyl(2,2,2-trifluoroethyl)amino]but-2-enoyl]piperazin-2-yl]acetonitrile], for which the “POC (normalized percent of control; degree of covalent modification of KRas G12C)” value is “C (“C”>50% POC)”. For `CN1CCC[C@H]1COc1nc2c(c(N3CCN(C(=O)/C=C/C(F)F)[C@@H](CC#N)C3)n1)CCN(c1cccc3cccc(Cl)c13)C2` [Example 13, 2-[(2S)-4-[7-(8-chloro-1-naphthyl)-2-[[(2S)-1-methylpyrrolidin-2-yl]methoxy]-6,8-dihydro-5H-pyrido[3,4-d]pyrimidin-4-yl]-1-[(E)-4,4-difluorobut-2-enoyl]piperazin-2-yl]acetonitrile], the “POC (normalized percent of control; degree of covalent modification of KRas G12C)” value was “C (“C”>50% POC)”.
